From patent publication US20090048301A1 (IMCLONE SYSTEMS INCORPORATED, priority 2003, published 2009)

test system: bovine tubulin; assay: In vitro tubulin polymerization assay (turbidity at 340 nm); format: biochemical; conditions: 10 μM compound, 30 minute data point, vs 1% DMSO control
Experimental: Briefly, tubulin polymerization is a kinetic process that is temperature-dependent and requires GTP and was performed as follows. Soluble tubulin dimers polymerize into microtubules upon warming, and polymerization in vitro correlates with an increase in turbidity (measured at 340 nm). Lyophilized bovine tubulin (HTS Tubulin—97% tubulin, <3% MAPs—Cytoskeleton Inc.) was ressuspended in G-PEM buffer (80 mM PIPES pH 7, 1 mM EGTA, 1 mM MgCl2, 1 mM GTP, 5% glycerol) to a final concentration of 3 mg/ml and kept at 4° C. Compounds in 100× stock solutions in DMSO were dotted to pre-warmed 96-well plates (Corning Costar 3696), the plates were transferred to a 37° C. plate reader (SPECTRAmax Plus, Molecular Devices), cold tubulin was added to the wells, and the plates were shaken for mixing. The absorbance at 340 nm was determined at one minute intervals for 30 minutes. Kinetic curves with 30 points each were collected for each compound, and the dynamic range was between 0 and 0.4 OD units. The percentage inhibition values were calculated using the 30 minute data point and based on control samples (treated with 1% DMSO only). The assay is a modified version of the HTS kit sold by Cytoskeleton (1830 S. Acoma St., Denver, Colo.), adapted to maximize throughput and reduce time, without reduction in dynamic range or sensitivity, while retaining the ability to detect compounds that inhibit or enhance tubulin polymerization.
Tubulin polymerization is a kinetic process that is temperature-dependent and requires GTP. Soluble tubulin dimers polymerize into microtubules upon warming, and polymerization in vitro correlates with an increase in turbidity (measured at 340 nm). Liophilized bovine tubulin (HTS Tubulin—97% tubulin, <3% MAPs—Cytoskeleton Inc.) was ressuspended in G-PEM buffer (80 mM PIPES pH 7, 1 mM EGTA, 1 mM MgCl2, 1 mM GTP, 5% glycerol) to a final concentration of 3 mg/ml and kept at 4° C. Compounds in 100× stock solutions in DMSO were dotted to pre-warmed 96-well plates (Corning Costar 3696), the plates were immediately transferred to a 37° C. plate reader (SPECTRAmax Plus, Molecular Devices), cold tubulin was added to the wells, plates were shaken for mixing, and absorbance at 340 nm was read every minute for 30 minutes. Kinetic curves with 30 points each were collected for each compound, and the dynamic range was between 0 and 0.4 OD units. Percentage inhibition values were calculated using the 30 minute data point, based on control samples (treated with 1% DMSO only). This assay is a modified version of the HTS kit sold by Cytoskeleton, adapted to maximize throughput and reduce time, without reduction in dynamic range or sensitivity, while retaining the ability to detect compounds that inhibit or enhance tubulin polymerization.

Compound	Tubulin Assay: percent inhibition at 10 μM based on 30 minute data [%]
COc1ccc(Nc2nnc(-c3cccnc3Nc3ccc4cn[nH]c4c3)[nH]2)cc1 [Compound 19, (1H-Indazol-6-yl)-{3-[5-(4-methoxy-phenylamino)-4H-[1,2,4]triazol-3-yl]-pyridin-2-yl}-amine]	20
COc1ccc(Nc2nnc(-c3cccnc3Nc3ccc4cn[nH]c4c3)[nH]2)c(OC)c1 [Compound 22, {3-[5-(2,4-Dimethoxy-phenylamino)-4H-[1,2,4]triazol-3-yl]-pyridin-2-yl}-(1H-indazol-6-yl)-amine]	24
COc1cccc(Nc2nnc(-c3cccnc3NCc3cc(OC)cc(OC)c3)[nH]2)c1 [Compound 23, (3,5-Dimethoxy-benzyl)-{3-[5-(3-methoxy-phenylamino)-4H-[1,2,4]triazol-3-yl]-pyridin-2-yl}-amine]	22
COc1cc(CNc2ncccc2-c2nnc(Nc3ccc(OC)cc3OC)[nH]2)cc(OC)c1 [Compound 24, (3,5-Dimethoxy-benzyl)-{3-[5-(2,4-dimethoxy-phenylamino)-4H-[1,2,4]triazol-3-yl]-pyridin-2-yl}-amine]	20
COc1ccc(Nc2nnc(-c3cccnc3NCc3cccnc3)[nH]2)cc1 [Compound 26, {3-[5-(4-Methoxy-phenylamino)-4H-[1,2,4]triazol-3-yl]-pyridin-2-yl}-pyridin-3-ylmethyl-amine]	20
COc1ccc(Nc2nnc(-c3cccnc3NCc3cccnc3)[nH]2)c(OC)c1 [Compound 27, {3-[5-(2,4-Dimethoxy-phenylamino)-4H-[1,2,4]triazol-3-yl]-pyridin-2-yl}-pyridin-3-ylmethyl-amine]	20
COc1ccc(OC)c(Nc2nnc(-c3cccnc3NCc3cccnc3)[nH]2)c1 [Compound 28, {3-[5-(2,5-Dimethoxy-phenylamino)-4H-[1,2,4]triazol-3-yl]-pyridin-2-yl}-pyridin-3-ylmethyl-amine]	22
COc1cccc(Nc2nnc(-c3cccnc3NCCCn3ccnc3)[nH]2)c1 [Compound 29, (3-Imidazol-1-yl-propyl)-{3-[5-(3-methoxy-phenylamino)-4H-[1,2,4]triazol-3-yl]-pyridin-2-yl}-amine]	28
c1cnc(NCc2ccc3c(c2)OCCO3)c(-c2nnc(Nc3ccc4c(c3)OCO4)[nH]2)c1 [Compound 34, {3-[5-(Benzo[1,3]dioxol-5-ylamino)-4H-[1,2,4]triazol-3-yl]-pyridin-2-yl}-(2,3-dihydro-benzo[1,4]dioxin-6-ylmethyl)-amine]	69
COc1cccc(Nc2nnc(-c3cccnc3NCc3ccc4c(c3)OCCO4)[nH]2)c1 [Compound 35, (2,3-Dihydro-benzo[1,4]dioxin-6-ylmethyl)-{3-[5-(3-methoxy-phenylamino)-4H-[1,2,4]triazol-3-yl]-pyridin-2-yl}-amine]	66
c1cnc(NCc2ccc3c(c2)CCO3)c(-c2nnc(Nc3ccc4c(c3)OCO4)[nH]2)c1 [Compound 36, {3-[5-(Benzo[1,3]dioxol-5-ylamino)-4H-[1,2,4]triazol-3-yl]-pyridin-2-yl}-(2,3-dihydro-benzofuran-5-ylmethyl)-amine]	67
COc1cccc(Nc2nnc(-c3cccnc3NCc3ccc4c(c3)CCO4)[nH]2)c1 [Compound 37, (2,3-Dihydro-benzofuran-5-ylmethyl)-{3-[5-(3-methoxy-phenylamino)-4H-[1,2,4]triazol-3-yl]-pyridin-2-yl}-amine]	91
c1cncc(CCNc2ncccc2-c2nnc(Nc3ccc4c(c3)OCCO4)[nH]2)c1 [Compound 41, {3-[5-(2,3-Dihydro-benzo[1,4]dioxin-6-ylamino)-4H-[1,2,4]triazol-3-yl]-pyridin-2-yl}-(2-pyridin-3-yl-ethyl)-amine]	23
COc1cccc(Nc2nnc(-c3cccnc3NCC3COCCO3)[nH]2)c1 (centres unmarked) [Compound 46, [1,4]Dioxan-2-ylmethyl-{3-[5-(3-methoxy-phenylamino)-4H-[1,2,4]triazol-3-yl]-pyridin-2-yl}-amine]	25
c1cnc(NCC2COCCO2)c(-c2nnc(Nc3ccc4c(c3)OCO4)[nH]2)c1 (centres unmarked) [Compound 47, {3-[5-(Benzo[1,3]dioxol-5-ylamino)-4H-[1,2,4]triazol-3-yl]-pyridin-2-yl}-[1,4]dioxan-2-ylmethyl-amine]	24
O=C1CCCN1CCCNc1ncccc1-c1nnc(Nc2ccc3c(c2)OCCO3)[nH]1 [Compound 48, 1-(3-{3-[5-(2,3-Dihydro-benzo[1,4]dioxin-6-ylamino)-4H-[1,2,4]thiazol-3-yl]-pyridin-2-ylamino}-propyl)-pyrrolidin-2-one]	21
COc1cccc(CNc2ncccc2-c2nnc(Nc3ccc4c(c3)OCCO4)[nH]2)c1 [Compound 52, {3-[5-(2,3-Dihydro-benzo[1,4]dioxin-6-ylamino)-4H-[1,2,4]triazol-3-yl]-pyridin-2-yl}-(3-methoxy-benzyl)-amine]	35
c1cnc(NCC2COCCO2)c(-c2nnc(Nc3ccc4c(c3)OCCO4)[nH]2)c1 (centres unmarked) [Compound 55, {3-[5-(2,3-Dihydro-benzo[1,4]dioxin-6-ylamino)-4H-[1,2,4]triazol-3-yl]-pyridin-2-yl}-[1,4]dioxan-2-ylmethyl-amine]	23
COc1ccc(CNc2nnc(-c3cccnc3NCCCN3CCCC3=O)[nH]2)cc1 [Compound 57, 1-(3-{3-[5-(4-Methoxy-benzylamino)-4H-[1,2,4]triazol-3-yl]-pyridin-2-ylamino}-propyl)-pyrrolidin-2-one]	22
COc1cc(Nc2ncccc2-c2nnc(Nc3cccc(NCc4ccc5c(c4)OCO5)c3)[nH]2)cc(OC)c1 [Compound 60, N-Benzo[1,3]dioxol-5-ylmethyl-N′-{5-[2-(3,5-dimethoxy-phenylamino)-pyridin-3-yl]-4H-[1,2,4]triazol-3-yl}-benzene-1,3-diamine]	99
COc1cc(Nc2ncccc2-c2nnc(Nc3cccc(N)c3)[nH]2)cc(OC)c1 [Compound 60b, N-{5-[2-(3,5-dimethoxy-phenylamino)-pyridin-3-yl]-4H-[1,2,4]triazol-3-yl}-benzene-1,3-diamine]	39
COc1cc(Nc2ncccc2-c2nnc(Nc3cccc(NCC4CCOCC4)c3)[nH]2)cc(OC)c1 [Compound 61, N-{5-[2-(3,5-Dimethoxy-phenylamino)-pyridin-3-yl]-4H-[1,2,4]triazol-3-yl}-N′-(tetrahydro-pyran-4-ylmethyl)-benzene-1,3-diamine]	24
COc1cc(Nc2ncccc2-c2nnc(Nc3cccc(NCc4ccco4)c3)[nH]2)cc(OC)c1 [Compound 62, N-{5-[2-(3,5-Dimethoxy-phenylamino)-pyridin-3-yl]-4H-[1,2,4]triazol-3-yl}-N′-furan-2-ylmethyl-benzene-1,3-diamine]	73
COc1cc(Nc2ncccc2-c2nnc(Nc3cccc(NS(=O)(=O)c4ccc5c(c4)CCO5)c3)[nH]2)cc(OC)c1 [Compound 63, 2,3-Dihydro-benzofuran-5-sulfonic acid (3-{5-[2-(3,5-dimethoxy-phenylamino)-pyridin-3-yl]-4H-[1,2,4]triazol-3-ylamino}-phenyl)-amide]	24
COc1cc(Nc2ncccc2-c2nnc(Nc3cccc(NS(=O)(=O)c4ccc5c(c4)OCCO5)c3)[nH]2)cc(OC)c1 [Compound 64, 2,3-Dihydro-benzo[1,4]dioxine-6-sulfonic acid (3-{5-[2-(3,5-dimethoxy-phenylamino)-pyridin-3-yl]-4H-[1,2,4]triazol-3-ylamino}-phenyl)-amide]	29
COc1cc(Nc2ncccc2-c2nc(Nc3ccc4c(c3)OCO4)n(C)n2)cc(OC)c1 [Compound 65, {3-[5-(Benzo[1,3]dioxol-5-ylamino)-1-methyl-1H-[1,2,4]triazol-3-yl]-pyridin-2-yl}-(3,5-dimethoxy-phenyl)-amine]	77
